Data published in patent publication US8377974B2 (Millennium Pharmaceuticals, Inc., priority 2004, dated 2013).

Target: T1, human plasma protein factor Xa (Homo sapiens, UniProt P00742)
T1 construct: measure proteolytic activity of the enzyme (factor Xa); purchased Haematologic Technologies (Essex Junction, Vt.); host or cells: human plasma
Assay: Factor Xa IC50 determination: cleavage of paranitroanilide substrate S-2765 in 96-well plates
Type: biochemical
Conditions: fXa 1 nM, S-2765 100 μM, Tris buffered saline pH 7.4, room temperature
Method in brief: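 Initial rates of S-2765 (100 μM final) cleavage, read at 405 nm for 2 min, fitted with a four-parameter equation to give IC50. Enzyme: 1 nM human plasma fXa, 5 min room-temperature preincubation with inhibitor (0.01 nM–10 μM) in 20 mM Tris, 150 mM NaCl, 5 mM CaCl2, 0.1% BSA, 5% DMSO, pH 7.4; duplicates.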

T1 sequence (P00742 235-488 limits assumed): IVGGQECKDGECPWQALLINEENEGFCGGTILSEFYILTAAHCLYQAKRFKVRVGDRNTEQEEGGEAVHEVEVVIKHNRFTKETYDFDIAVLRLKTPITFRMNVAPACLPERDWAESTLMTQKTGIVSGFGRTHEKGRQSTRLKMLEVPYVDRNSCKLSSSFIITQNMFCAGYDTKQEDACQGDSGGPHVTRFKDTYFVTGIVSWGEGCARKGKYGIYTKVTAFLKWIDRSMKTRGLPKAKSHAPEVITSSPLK
T1 sequence (P00742 41-179 partner limits assumed): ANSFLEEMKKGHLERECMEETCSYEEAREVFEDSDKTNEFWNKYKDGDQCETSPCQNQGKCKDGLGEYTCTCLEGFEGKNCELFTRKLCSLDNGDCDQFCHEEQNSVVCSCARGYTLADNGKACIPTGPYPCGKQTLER

IC50, ≤ 100 nM:
CC(C)Oc1cc(C(=N)N2CCCC2)ccc1C1=NOC(CNC(=O)c2ccc(Cl)s2)C1 (stereo not shown) [Example 111, 5-Chloro-thiophene-2-carboxylic acid {3-[4-(imino-pyrrolidin-1-yl-methyl)-2-isopropoxy-phenyl]-4,5-dihydro-isoxazol-5-ylmethyl}-amide]
CN(C)C(=N)c1ccc(C2=NOC(CNC(=O)c3ccc(Cl)s3)C2)c(OC2CCCC2)c1 (stereo not shown) [Example 112, 5-Chloro-thiophene-2-carboxylic acid {3-[2-cyclopentyloxy-4-(N,N-dimethyl-carbamimidoyl)-phenyl]-4,5-dihydro-isoxazol-5-ylmethyl}-amide]
CN1CCN=C1c1ccc(C2=NOC(CNC(=O)c3ccc(Cl)s3)C2)c(OC2CCCC2)c1 (stereo not shown) [Example 113, 5-Chloro-thiophene-2-carboxylic acid {3-[2-cyclopentyloxy-4-(1-methyl-4,5-dihydro-1H-imidazol-2-yl)-phenyl]-4,5-dihydro-isoxazol-5-ylmethyl}-amide]
N=C(c1ccc(C2=NOC(CNC(=O)c3ccc(Cl)s3)C2)c(OC2CCCC2)c1)N1CCCC1 (stereo not shown) [Example 114, 5-Chloro-thiophene-2-carboxylic acid {3-[2-cyclopentyloxy-4-(imino-pyrrolidin-1-yl-methyl)-phenyl]-4,5-dihydro-isoxazol-5-ylmethyl}-amide]
CN(C)C(=N)c1ccc(C2=NOC(CNC(=O)c3ccc(Cl)s3)C2)c(OC2CCCCC2)c1 (stereo not shown) [Example 115, 5-Chloro-thiophene-2-carboxylic acid {3-[2-cyclohexyloxy-4-(N,N-dimethyl-carbamimidoyl)-phenyl]-4,5-dihydro-isoxazol-5-ylmethyl}-amide]
CN1CCN=C1c1ccc(C2=NOC(CNC(=O)c3ccc(Cl)s3)C2)c(OC2CCCCC2)c1 (stereo not shown) [Example 116, 5-Chloro-thiophene-2-carboxylic acid {3-[2-cyclohexyloxy-4-(1-methyl-4,5-dihydro-1H-imidazol-2-yl)-phenyl]-4,5-dihydro-isoxazol-5-ylmethyl}-amide]
N=C(c1ccc(C2=NOC(CNC(=O)c3ccc(Cl)s3)C2)c(OC2CCCCC2)c1)N1CCCC1 (stereo not shown) [Example 117, 5-Chloro-thiophene-2-carboxylic acid {3-[2-cyclohexyloxy-4-(imino-pyrrolidin-1-yl-methyl)-phenyl]-4,5-dihydro-isoxazol-5-ylmethyl}-amide]
COc1cc(C(=N)N(C)C)ccc1-c1cc(CNC(=O)c2ccc(Cl)s2)on1 [Example 118, 5-Chloro-thiophene-2-carboxylic acid {3-[4-(N,N-dimethyl-carbamimidoyl)-2-methoxy-phenyl]-isoxazol-5-ylmethyl}-amide]
COc1cc(C2=NCCN2C)ccc1-c1cc(CNC(=O)c2ccc(Cl)s2)on1 [Example 119, 5-Chloro-thiophene-2-carboxylic acid {3-[2-methoxy-4-(1-methyl-4,5-dihydro-1H-imidazol-2-yl)-phenyl]-isoxazol-5-ylmethyl}-amide]
COc1cc(C(=N)N2CCCC2)ccc1-c1cc(CNC(=O)c2ccc(Cl)s2)on1 [Example 120, 5-Chloro-thiophene-2-carboxylic acid {3-[4-(imino-pyrrolidin-1-yl-methyl)-2-methoxy-phenyl]-isoxazol-5-ylmethyl}-amide]
COc1cc(C(=N)N2CCCCC2)ccc1-c1cc(CNC(=O)c2ccc(Cl)s2)on1 [Example 121, 5-Chloro-thiophene-2-carboxylic acid {3-[4-(imino-piperidin-1-yl-methyl)-2-methoxy-phenyl]-isoxazol-5-ylmethyl}-amide]
CCOc1cc(C(=N)N(C)C)ccc1-c1cc(CNC(=O)c2ccc(Cl)s2)on1 [Example 122, 5-Chloro-thiophene-2-carboxylic acid {3-[4-(N,N-dimethyl-carbamimidoyl)-2-ethoxy-phenyl]-isoxazol-5-ylmethyl}-amide]
CCOc1cc(C2=NCCN2C)ccc1-c1cc(CNC(=O)c2ccc(Cl)s2)on1 [Example 123, 5-Chloro-thiophene-2-carboxylic acid {3-[2-ethoxy-4-(1-methyl-4,5-dihydro-1H-imidazol-2-yl)-phenyl]-isoxazol-5-ylmethyl}-amide]
CCOc1cc(C(=N)N2CCCC2)ccc1-c1cc(CNC(=O)c2ccc(Cl)s2)on1 [Example 124, 5-Chloro-thiophene-2-carboxylic acid {3-[2-ethoxy-4-(imino-pyrrolidin-1-yl-methyl)-phenyl]-isoxazol-5-ylmethyl}-amide]
CCOc1cc(C(=N)N2CCCCC2)ccc1-c1cc(CNC(=O)c2ccc(Cl)s2)on1 [Example 125, 5-Chloro-thiophene-2-carboxylic acid {3-[2-ethoxy-4-(imino-piperidin-1-yl-methyl)-phenyl]-isoxazol-5-ylmethyl}-amide]
CC(C)Oc1cc(C(=N)N(C)C)ccc1-c1cc(CNC(=O)c2ccc(Cl)s2)on1 [Example 126, 5-Chloro-thiophene-2-carboxylic acid {3-[4-(N,N-dimethyl-carbamimidoyl)-2-isopropoxy-phenyl]-isoxazol-5-ylmethyl}-amide]
CC(C)Oc1cc(C2=NCCN2C)ccc1-c1cc(CNC(=O)c2ccc(Cl)s2)on1 [Example 127, 5-Chloro-thiophene-2-carboxylic acid {3-[2-isopropoxy-4-(1-methyl-4,5-dihydro-1H-imidazol-2-yl)-phenyl]-isoxazol-5-ylmethyl}-amide]
CC(C)Oc1cc(C(=N)N2CCCC2)ccc1-c1cc(CNC(=O)c2ccc(Cl)s2)on1 [Example 128, 5-Chloro-thiophene-2-carboxylic acid {3-[4-(imino-pyrrolidin-1-yl-methyl)-2-isopropoxy-phenyl]-isoxazol-5-ylmethyl}-amide]
CC(C)Oc1cc(C(=N)N2CCCCC2)ccc1-c1cc(CNC(=O)c2ccc(Cl)s2)on1 [Example 129, 5-Chloro-thiophene-2-carboxylic acid {3-[4-(imino-piperidin-1-yl-methyl)-2-isopropoxy-phenyl]-isoxazol-5-ylmethyl}-amide]
CN(C)C(=N)c1ccc(-c2cc(CNC(=O)c3ccc(Cl)s3)on2)c(Oc2ccccc2)c1 [Example 130, 5-Chloro-thiophene-2-carboxylic acid {3-[4-(N,N-dimethyl-carbamimidoyl)-2-phenoxy-phenyl]-isoxazol-5-ylmethyl}-amide]
CN1CCN=C1c1ccc(-c2cc(CNC(=O)c3ccc(Cl)s3)on2)c(Oc2ccccc2)c1 [Example 131, 5-Chloro-thiophene-2-carboxylic acid {3-[4-(1-methyl-4,5-dihydro-1H-imidazol-2-yl)-2-phenoxy-phenyl]-isoxazol-5-ylmethyl}-amide]
N=C(c1ccc(-c2cc(CNC(=O)c3ccc(Cl)s3)on2)c(Oc2ccccc2)c1)N1CCCC1 [Example 132, 5-Chloro-thiophene-2-carboxylic acid {3-[4-(imino-pyrrolidin-1-yl-methyl)-2-phenoxy-phenyl]-isoxazol-5-ylmethyl}-amide]
